Reference: patent US20030162722A1, “Pharmaceutical compositions comprising acryloyl distamycin derivatives and topoisomerase I and II inhibitors” (priority 2000, published 2003)

System: disseminated L1210 murine leukemia
Assay: Antileukemic activity against disseminated L1210 murine leukemia
Details: PNU 166196 0.52 mg/kg; for ILS % (increase in life span) / Tox (number of toxic deaths/number of mice): L1210 cells 10^5/mouse CD2F1 IV day 0, treatment iv day +1, doxorubicin 10 mg/kg (given 2 h after PNU 166196), alone or combined at the same doses
Source text: For these experiments, PNU 166196 and doxorubicin were solubilized in water for injection.

| Structure (SMILES) | ILS % (increase in life span) | Tox (number of toxic deaths/number of mice) | toxicity (in words) (single agents, iv day +1, doxorubicin 10 mg/kg) |
| --- | --- | --- | --- |
| COc1cccc2c1C(=O)c1c(O)c3c(c(O)c1C2=O)C[C@@](O)(C(=O)CO)C[C@@H]3O[C@H]1C[C@H](N)[C@H](O)[C@H](C)O1 [Doxorubicin, doxorubicin, reference compound] | 58% | 0/10 | – |
| C=C(Br)C(=O)Nc1cc(C(=O)Nc2cc(C(=O)Nc3cc(C(=O)Nc4cc(C(=O)NCCNC(=N)N)n(C)c4)n(C)c3)n(C)c2)n(C)c1.Cl [PNU 166196, N-(5-{[(5-{[(5-{[(2-{[amino(imino)methyl]amino}ethyl)amino]carbonyl}-1-methyl-1H-pyrrol-3-yl)amino]carbonyl}-1-methyl-1H-pyrrol-3-yl)amino]carbonyl}-1-methyl-1H-pyrrol-3-yl)-4-[(2-bromoacryloyl)amino]-1-methyl-1H-pyrrole-2-carboxamide hydrochloride] | 33% | 0/10 | without toxicity |
